Results from US9744211B2, “Uses of BT lipopeptides as therapeutics for obesity and related diseases” (MYGALAXY LIMITED COMPANY, priority 2012, dated 2017).

System: isolated chicken heterophils
Assay: PMA-stimulated oxidative burst of heterophils in vitro (BT priming assay, with or without anti-TLR2 antibody blocking)
Type: cell-based
Details: Group 2: PMA stimulation only, no BT
Source text: However, the in vitro priming assay provides a useful tool for probing possible signaling pathway involved in BT-mediated innate immunomodulation. Since TLRs are conserved receptors playing key roles in innate immunity (Farnell et al., 2003) and TLR2 is the only TLR that has lipopeptide agonists, the same in vitro BT priming assay (Kogut et al., 2012) was employed to investigate whether TLR2 can function as a receptor for BT lipopeptides.
Goat polyclonal antibodies raised against human TLR2 were purchased from Santa Cruz Biotechnology Lab (Santa Cruz, Calif.). For TLR2-blocking, isolated chicken heterophils and the antibodies (2.0 μg/ml) were incubated, prior to the treatments of BT and/or PMA, at 39° C. for 30 minutes.

## CCCCCCCCCCCCCC(=O)O[C@@H]1[C@@H](C)[C@@]2(O)[C@@H](C=C(CO)C[C@]3(O)C(=O)C(C)=C[C@@H]23)[C@@H]2C(C)(C)[C@]12OC(C)=O [PMA]
  Oxidative burst (RFU + SE) in 10^3: 11.235 ± 0.125 RFU in 10^3
